Source: patent US9115176B2, “Compounds, use thereof in cosmetic and cosmeceutic applications, and compositions comprising same” (Lucas Meyer Cosmetics Canada Inc., priority 2007, dated 2015)
* marks the point of attachment. Hexanoyl = CCCCCC(=O)*

Legend:
[1] = tested on: Normal human dermal fibroblasts; assay: Neosynthesis of laminin in normal human dermal fibroblasts (E.I.A. kit, normalised to Bradford protein); assay type: cell-based; settings: for Laminins (ng/μg proteins) % increase: 48 hours incubation, untreated control = 100.0%
Method: Normal human dermal fibroblasts were incubated for 48 hours in absence or presence of Transforming Growth Factor (TGF)-β at 50 ng/ml or of peptide I at two concentrations, namely 10^−6M and 10^−7M. At the end of the incubation period, laminins were quantified with the E.I.A. Enzyme Immuno Assay kit. Proteins contained in the cell lysate were also quantified by spectrocolorimetry according to the Bradford method. TGF-β and peptide I were tested in dose-response on the fibroblasts.
The data presented in Table I below represent the relative increase in laminin synthesis in a human dermal fibroblast culture medium in monolayers in the presence of peptide I, or TGF-β, as compared to untreated cells (control).

collagen VII = assay: Synthesis of collagen VII in human skin fragments treated with dermal corticosteroid (immunohistochemistry, semi-quantitative score); assay type: cell-based
Method: Fragments of normal human skin were treated or not in the presence of a dermal corticosteroid at 0.05% w/v and peptide I at a concentration of 10^−7M. Dermal corticosteroid are known to alter cell metabolism. The skin samples were then frozen at day 3 for an immunohistochemical analysis of collagen VII. The immunodetection was performed with a 3 coats indirect immunoperoxidase method (ABC Peroxidase kit, Vector laboratories) using a primary antibody specific to collagen VII.

laminin-5 = assay: Synthesis of laminin-5 in human skin fragments treated with dermal corticosteroid (immunohistochemistry, semi-quantitative score); assay type: cell-based
Method: Fragments of normal human skin were treated or not in the presence of a dermal corticosteroid at 0.05% w/v or peptide I at a concentration of 10^−7M. The skin samples were then frozen at day 3 for an immunohistochemical analysis of laminin-5. The immunodetection was performed with a 3 coats indirect immunoperoxidase method (BC Peroxidase kit, Vector laboratories) using a primary antibody specific to laminin-5.

crow's feet = assay: In vivo anti-wrinkle activity on crow's feet (photographs, silicone replicas, fringe projection); parameters: species or system human; settings: 5 ppm in Table VI formulation, topical twice daily, after 28 and 56 days, versus placebo
Method: Peptide I was tested in the formulation described in Table VI below versus its placebo on 30 subjects (+10%) selected according to the inclusion/non inclusion criteria. [table] The study lasted 56 days following the first application. Volunteers applied the product twice daily on a randomised crow's foot of the temple. The study was a simple blind test, comparing the results obtained at one treated area following application of the composition comprising peptide I with those obtained at another treated area with the placebo. The evaluation of the efficacy of the formulation comprising peptide I was performed using: (a) illustrative digital photographs of the crow's feet; and (b) Silicone rubber replicas of the crow's feet (analysis of the wrinkles and of the skin network by fringe projection). In vitro fringe projection—Topometry—Wrinkles. […] All the silicone rubber replicas were analysed by fringe projection to observe the cutaneous relief. The following parameters were measured: (a) SPa: Average roughness; (b) SPq: Average dispersal of the variations of the relief; (c) SPt: Maximum amplitude of the relief and (d) SDev: Developed Surface. […] All the replicas were analysed by fringe projection to observe the skin network analysis. The following parameters were measured: (a) SRa: Average roughness (mm); and (b) SRq: Average with regards to the average quadratic (mm).

[2] = skin + corticosteroids 0.05% w/v + peptide I 10^−7M, day 3

Substance	Laminins (ng/μg proteins) % increase ([1]; 10^−6M) [%]	Laminins (ng/μg proteins) % increase ([1]; 10^−7M) [%]	Effect on laminin synthesis in human dermal fibroblast cells (in words) ([1]; summary of Table I)	Collagen VII score, relative change (collagen VII; [2])	Collagen VII labelling score (collagen VII; skin + corticosteroids 0.05% w/v + peptide I 10^−7M, day 3, control skin 1.9 ± 0.8)	Effect on synthesis of collagen VII in a human skin model (in words) (collagen VII; summary of Table III)	Laminin-5 score, relative change (laminin-5; [2])	Laminin-5 labelling score (laminin-5; skin + corticosteroids 0.05% w/v + peptide I 10^−7M, day 3, control skin 2.1 ± 1.3)	Effect on synthesis of laminin-5 in a human skin model (in words) (laminin-5; summary of Table V)	Crow's feet skin network roughness (in words) (crow's feet)	Reduction of the wrinkles (crow's feet roughness, in words) (crow's feet)	Laminins (ng/μg proteins) % increase ([1]; 50 ng/ml) [%]
CH3—(CH2)4—CO-Lys-Gly-His-Lys-NH2 (Hexanoyl-KGHK-NH2; SMILES CCCCCC(=O)N[C@@H](CCCCN)C(=O)NCC(=O)N[C@@H](Cc1c[nH]cn1)C(=O)N[C@@H](CCCCN)C(N)=O) [Peptide I]	125.8	125.9	increases laminin synthesis	+34%	2.25 ± 0.2	increases the synthesis of collagen VII	+49%	2.2 ± 0.8	increases the synthesis of laminin-5	reduction of the crow's feet skin network roughness	potent efficacy	–
TGF-β [reference compound]	–	–	–	–	–	–	–	–	–	–	–	109.9
